Values of other authors, collected in US20090137457A1, “Pyrimidinedione derivatives” (CoNCERT Pharmaceuticals, Inc., priority 2007, published 2009).

Settings: Phase I and II clinical trials; Christopher R et al., ADA 2007 (Abs 0495-P)

Cn1c(=O)cc(N2CCC[C@@H](N)C2)n(Cc2ccccc2C#N)c1=O [Alogliptin]
tolerability in clinical trials: generally well tolerated
